Here are results for 53 compounds from PubChem BioAssay AID624145 (Sanford-Burnham Center for Chemical Genomics, 2012).

Activity calls are given as the source filed them.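 The calls were made as follows: active = EC50 at or below 20 µM; inactive = the rest.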

The subject of the assay is hiPSC single-cell survival, DAPI nuclei count imaging. The experiment in a line: enhancers of single-cell hiPSC survival, dose response, imaging, fluorescence imaging, uHTS hits (AID 624145).

In the case of `O=C(Nc1nc(-c2ccncc2)cs1)C1COc2ccccc2O1` (stereo not drawn), the EC50 is 1.86 µM. For `CCn1c(Cl)c(C=O)s/c1=N\S(=O)(=O)c1ccccc1`, the EC50 was > 80 µM (inactive). As for `O=C(C(O)c1ccc(Br)cc1)N1CCC(Nc2ccc3[nH]ncc3c2)CC1` (stereo not drawn), the EC50 was 5.88 µM. In the case of `O=C(Nc1ccncc1)c1ccccc1[N+](=O)[O-]`, the EC50 was 33.4 µM (inactive). As to `COCCNC(=O)c1ccc(-c2cn[nH]c2)c2ccoc12`, the EC50 was 19.2 µM. Regarding `CC(C)(C)NC(=O)Cn1nnc(-c2ccccc2NC(=O)c2cnccn2)n1`, the EC50 was > 80 µM (inactive). On to `C=C1C(=O)OC2CC(C)C3C=CC(=O)C3(C)C(O)C12` (stereo not drawn), for which the EC50 was > 80 µM (inactive). On to `CCCNC(=O)COC(=O)c1ccccc1C(=O)c1ccc(Cl)c([N+](=O)[O-])c1`, for which the EC50 is > 80 µM (inactive). Consider `O=C(Nc1ccncc1)c1cc(S(=O)(=O)N2CCCC2)ccc1Cl`, for which the EC50 is 13.6 µM. Turning to `CC(OC(=O)c1cccc(S(=O)(=O)N2CCN(C)CC2)c1)C(=O)Nc1ccc(C(N)=O)cc1` (stereo not drawn), the EC50 is 35.6 µM (inactive). Regarding `CN(Cc1ccc(C(F)(F)F)cc1)C(=O)[C@H]1O[C@@H](n2cnc3c(N)ncnc32)[C@H](O)[C@@H]1O`, the EC50 was 20.8 µM (inactive).

Consider `Cc1c(C(=O)OCC(=O)Nc2ccc(C(N)=O)cc2)cccc1[N+](=O)[O-]`, for which the EC50 was > 80 µM (inactive).

Take `C=C1[C@@H](C)[C@H]2[C@H](Cc3ccccc3)NC(=O)[C@]23OC(=O)/C=C/[C@H](O)CCC[C@@H](C)C/C=C/[C@H]3[C@@H]1O`: the EC50 is 12.5 µM. On to `CC1C/C(=C/c2ccncc2)C(=O)/C(=C/c2ccncc2)C1` (stereo not drawn), for which the EC50 is > 80 µM (inactive). In the case of `CN1Cc2cnnn2-c2ccccc2C1C#N` (stereo not drawn), the EC50 was 26.5 µM (inactive). In the case of `N#C/C(=C/c1cccc([N+](=O)[O-])c1)c1nnc2n1CCCCC2`, the EC50 is > 80 µM (inactive). Take `C=C1C(C)C2C(Cc3ccccc3)NC(=O)C23OC(=O)/C=C/C(O)CCCC(C)C/C=C/C3C1O` (stereo not drawn): the EC50 is 12.5 µM. `CC(OC(=O)c1ccc2c(=O)n3c(nc2c1)CCC3)C(=O)Nc1ccc(C(N)=O)cc1` (stereo not drawn): the EC50 was 28.4 µM (inactive). Under `CN(C(=O)COC(=O)c1nc(Cl)c(Cl)c(Cl)c1Cl)C1CCS(=O)(=O)C1` (stereo not drawn) stands > 80 µM (inactive). `COc1ccccc1Sc1nc(-c2ccccn2)ncc1OC`: the EC50 is 45.7 µM (inactive). Consider `C=C1C(=O)O[C@@H]2C[C@@H](C)[C@@H]3C=CC(=O)[C@@]3(C)[C@@H](O)[C@H]12`, for which the EC50 was > 80 µM (inactive). Regarding `CCCSc1nc(N2CCOCC2)c2c(c1C#N)CC(C)(C)SC2`, the EC50 is > 80 µM (inactive). Consider `COC(=O)CCSc1cc([N+](=O)[O-])cc2c1c(C1OCCS1)nn2-c1ccccc1` (stereo not drawn), for which the EC50 was > 80 µM (inactive). For `CC(OC(=O)c1ccc(S(=O)(=O)N2CCCCC2)cc1)C(=O)Nc1ccc(C(N)=O)cc1` (stereo not drawn), the concentration for a half-maximal effect (EC50) was 10.5 µM.

Regarding `Cc1nnc2n(C3CCCCC3)c(=O)c3c4c(sc3n12)COC(C)(C)C4`, the EC50 is > 80 µM (inactive). Consider `C=C(C)[C@@]12OC3(c4ccccc4)O[C@@H]1C1[C@@H]4O[C@]4(CO)[C@@H](O)[C@]4(O)C(=O)C(C)=C[C@H]4[C@@]1(O3)[C@H](C)[C@H]2OC(=O)/C=C/C=C/c1ccccc1` (stereo partly drawn), for which the EC50 is > 80 µM (inactive).

On to `NC(=O)c1ccc(NC(=O)CCC(=O)c2cccs2)cc1`, for which the concentration for a half-maximal effect (EC50) is 7.14 µM.

Consider `CC1(C)Cc2c(C#N)c(NCC3CCCO3)nc(-c3ccco3)c2CO1` (stereo not drawn), for which the EC50 was 42.8 µM (inactive).

`CCN1C/C(=C\c2cccc([N+](=O)[O-])c2)C(=O)/C(=C/c2cccc([N+](=O)[O-])c2)C1`: the EC50 is > 80 µM (inactive).

Consider `c1ccc(CN2CCN(c3nc(NCc4ccco4)c4ccccc4n3)CC2)cc1`, for which the EC50 was 5.81 µM. Under `CCCCCCC[C@@H](C/C=C/CCC(=O)N(C)C/C(=C/Cl)C/C(=C\C(=O)N1CC(OC)=CC1=O)OC)OC` stands 0.525 µM; under `O=C(COc1ccccc1)Nc1nc(-c2ccncc2)cs1`, 29.3 µM (inactive). In the case of `CNc1cc(Cl)c2nonc2c1[N+](=O)[O-]`, the EC50 was > 80 µM (inactive). Consider `O=C(NCc1ccccc1)c1ccc(-c2cn[nH]c2)c2ccoc12`, for which the EC50 was 1.1 µM. Turning to `CC(Oc1ccccc1)C(=O)Nc1nc(-c2ccncc2)cs1` (stereo not drawn), the EC50 is 42.9 µM (inactive).

With `C=C1C(C)C2C(Cc3ccccc3)NC(=O)C23C(OC(C)=O)C=CC(C)(O)CC(C)CC=CC3C1O` (stereo not drawn), the EC50 is > 80 µM (inactive). On to `CN1C2CCC1/C(=C/c1ccccn1)C(=O)/C2=C\c1ccccn1`, for which the EC50 is > 80 µM (inactive). In the case of `CCOCCCNC(=O)/C(C#N)=C/c1ccc([N+](=O)[O-])o1`, the EC50 was > 80 µM (inactive). For `O=C(Cc1ccc(Br)cc1)Nc1ccc2[nH]ncc2c1`, the concentration for a half-maximal effect (EC50) was 19.1 µM. As for `O=C(NCC1CC1)c1ccc(-c2cn[nH]c2)c2ccoc12`, the figure is 14.2 µM; as for `CCC(C(=O)Nc1ccc2[nH]ncc2c1)c1ccccc1` (stereo not drawn), 6.49 µM; as for `COc1ccc2c(c1)c(=O)c(C(=O)c1ccc(Cl)cc1)cn2CC(=O)Nc1ccc(F)cc1`, 18.6 µM. `CN1C/C(=C/c2cccnc2)C(=O)/C(=C/c2cccnc2)C1`: the EC50 was > 80 µM (inactive). Regarding `CC1(C)Cc2c(C#N)c(SCC(=O)c3ccccc3)nc(N3CCOCC3)c2CS1`, the EC50 is 39.3 µM (inactive). For the compound `O=C1/C(=C/c2ccncc2)CCC/C1=C\c1ccncc1`, the EC50 was > 80 µM (inactive). For the compound `O=C(Nc1ccncc1)c1cc(S(=O)(=O)N2CCOCC2)ccc1Cl`, the EC50 was 13.8 µM. With `CCN1C/C(=C/c2cccc([N+](=O)[O-])c2)C(=O)/C(=C/c2cccc([N+](=O)[O-])c2)C1`, the EC50 is > 80 µM (inactive).

Turning to `CCCCn1c(=O)[nH]c(=O)c2c1nc(Cn1ncc(Cl)c(Cl)c1=O)n2CCC`, the EC50 was > 80 µM (inactive). As for `O=C(Nc1ccncc1)c1c(F)cccc1F`, the figure is 13.6 µM; as for `O=S(=O)(c1cccc2cnccc12)N1CCNCC1`, 2.05 µM; as for `O=C(Nc1ccncc1)c1c(F)c(F)c(F)c(F)c1F`, 5.46 µM. Regarding `O=c1c(Cl)c(Cl)cnn1Cc1nnc(-c2ccccc2Br)o1`, the EC50 is > 80 µM (inactive). Under `O=C(Nc1ccncc1)c1ccccc1F` stands 28.2 µM (inactive).

What is called EC50 is the midpoint of the concentration-response curve.
